Experiment in all cases: inhibition of tumour cell growth, NCI panel, 48 h
In test [1] the test system is A498 renal.
Test [2] relates to MDA-MB-435.
Test [3] has as its system NCI-H23 lung.
Test [4] concerns SK-MEL-5 melanoma.
In test [5] the test system is SF-539 CNS.
The subject of test [6] is BT-549 breast.
For test [7], the system named is EKVX NSCLC.
For test [8], the system named is CCRF-CEM leukemia.
Test [9] has as its system NCI/ADR-RES ovarian.
Test [10] concerns IGROV1 ovarian.

Where “and” joins values, the source holds several entries; their conditions need not be identical. Equal values may be shown once.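 Cells were grown in 96-well plates and exposed to each compound for 48 hours at five concentrations; endpoints were interpolated linearly between bracketing concentrations, or set to the highest concentration if not reached. GI50 is the concentration that inhibits growth by half. TGI: total growth inhibition.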

For the compound `COc1cc(/C=C/C(=O)c2cc(OC)c(OC)c(OC)c2)cc(OC)c1OC`, the GI50 was 2.47 µM in test [1]; 2.28 µM in test [2]; 3.15 µM in test [3]; 8.33 µM in test [4]; 3.21 µM in [5]; 2.48 µM in test [6]. In addition, the GI50 is 2.63 µM in [7] and 2250 nM in [8]. Further, the TGI in [1] worked out at 9.47 µM; in [2] it was 8.11 µM; in [3] it was 13.7 µM; in test [4], 21.1 µM; in test [5], 12.9 µM; in test [6], 9.26 µM. For the same compound, the TGI in test [7] is 21.5 µM; in test [8] it was greater than 100 µM.
For `CC(C)(C)c1nnc2n(c1=O)N=CC(c1ccc(Br)cc1)S2` (stereo unspecified), the GI50 in test [2] is 27.9 µM; in test [3], 19.8 µM; in test [9] it was 26.4 µM; in test [10] it was 26.5 µM; in test [4], 18.6 µM; in test [5] it was 19.7 µM. Also, the figures for the GI50 in test [6], in test [7] and in test [8] were 24.3 µM, 22.7 µM and 31300 nM, respectively. Besides, the TGI turned out to be 78.7 µM in test [2]; 46.8 µM in test [3]; 61.6 µM in [9]; 92.8 µM in test [10]; 38.3 µM in [4]; 50.9 µM in test [5]. In addition, the figures for the TGI in test [6], in test [7] and in test [8] were 74.7 µM, 66.7 µM and greater than 100 µM, respectively.
As for `COc1cc2c3c(n(C)c(=O)c2cc1OC)-c1cc2c(cc1/C3=C\[C@@H](N)CCCCN)OCO2`, the GI50 was 5.14 µM in test [1]; 2.81 µM in [2]; 1.29 µM in test [3]; 29.7 µM in test [9]; 2.24 µM in test [10]; 0.335 µM in test [5]. For the same compound, the GI50 is 4.52 µM in [6], 4.56 µM in test [7] and 996 nM in [8]. For the same compound, the TGI in test [1] was 33.9 µM; in [2], greater than 100 µM; in test [3] it was 20.5 µM; in test [9], greater than 100 µM; in test [10] it was greater than 100 µM; in test [5] it was 12.5 µM. The TGI in test [6] is 28.3 µM; in test [7], 75.9 µM; in test [8] it was greater than 100 µM.
Turning to `CC(C)CC(=O)CC(O)C(Cl)(Cl)Cl` (stereo unspecified), the TGI in [1], in test [2], in test [3], in test [9], in [10] and in test [4] was greater than 100 µM each time. Moreover, the TGI in test [6], in test [7] and in test [8] was greater than 100 µM in each case.
Regarding `Clc1ccc(Nc2nc3ccccc3c3occc23)cc1`, the GI50 in test [2] is 7.5 µM; in test [3], 8.02 µM; in [9], 8.7 µM; in test [10], 10.2 µM; in test [4] it was 7.52 µM; in test [5], 9.62 µM. Moreover, the values for the GI50 in [6] and in [7] were 8.28 µM and 8.02 µM, respectively. Besides, the TGI in [2] came to 14.1 µM; in [3], 14.9 µM; in test [9], 15.6 µM; in [10] it was 27.3 µM; in [4], 14.1 µM; in test [5] it was 17.5 µM. In addition, the results for the TGI in test [6] and in [7] were 15.2 µM and 15.9 µM, respectively.
On to `CC(C)(C)n1cc(-c2ccnc(NCCNS(=O)(=O)c3cccc4ccccc34)c2)c(-c2cccc(F)c2)n1`, for which the GI50 in test [2] is 19.1 µM; in test [3], 14.9 µM; in [9], 21.4 µM; in test [10] it was 18.6 µM; in [4] it was 11.9 µM; in [5] it was 16.1 µM. For the same compound, the values for the GI50 in test [6], in test [7] and in test [8] were 10.6 µM, 17.2 µM and 8380 nM, respectively. For the same compound, the TGI in test [2] is 38.7 µM; in test [3], 59.1 µM; in test [9], greater than 100 µM; in test [10], 64.3 µM; in test [4], 24.9 µM; in [5], 31.7 µM. Further, the TGI in [6] was 26.7 µM; in test [7] it was greater than 100 µM; in [8], greater than 100 µM.
Take `CS(=O)(=O)CS(=O)CS(=O)CS(=O)CC(NC(=O)CCC(N)C(=O)O)C(=O)O` (stereo unspecified): the TGI in test [2], in test [3], in test [9], in [10], in test [4] and in test [5] was greater than 100 µM each time. Further, the TGI in [6], in test [7] and in test [8] was greater than 100 µM in each case.
In the case of `c1ccc2c(c1)ccc1c3ccccc3ccc21`, the GI50 in [1], in test [2], in [3], in test [9], in test [10] and in [4] was greater than 50 µM throughout. In addition, the GI50 in test [5] was greater than 50 µM; in test [6] it was greater than 50 µM; in test [8], greater than 50000 nM. Also, the TGI in test [1], in test [2], in [3], in test [9], in test [10] and in test [4] was greater than 50 µM in each case. Moreover, the TGI in [5], in test [6] and in test [8] was greater than 50 µM throughout.
For `COc1ccc(-c2[nH]ncc2-c2cc(OC)c(OC)c(OC)c2)cc1`, the GI50 in test [1] was less than 0.01 µM; in test [2], less than 0.01 µM; in test [3], 0.0103 µM; in [9], less than 0.01 µM; in [10], less than 0.01 µM; in test [4], less than 0.01 µM. The GI50 in test [5] is less than 0.01 µM; in test [6], 0.0143 µM; in [8] it was less than 16.3 nM. For the same compound, the TGI in test [1] was less than 0.0127 µM; in test [2] it was less than 0.01 µM; in [3], 26.7 µM; in [9], 1.93 µM; in [10] it was 7.73 µM; in test [4], 0.0551 µM. Besides, the TGI in test [5] was less than 0.0128 µM; in test [6] it was 4.45 µM; in [8] it was 28.8 µM.
`COP1(=S)OCC2CCC[C@@H]2O1` (stereo partly specified): the TGI in [1], in test [2], in test [3], in test [9], in test [10] and in test [4] was greater than 100 µM in each case. In addition, the TGI in test [5], in test [6] and in test [8] was greater than 100 µM throughout.
As to `COc1ccc2c(c1)C(=O)c1c-2n(CCCCl)c(=O)c2cc(N(C)C)ccc12`, the GI50 was 95.6 µM in test [1]; 81.8 µM in test [2]; greater than 100 µM in test [3]; greater than 100 µM in [9]; 33 µM in [10]; 11.2 µM in test [4]. In addition, the GI50 was 12.4 µM in test [5], 26 µM in test [6] and greater than 100 µM in test [7]. Moreover, the TGI in test [1] was greater than 100 µM; in test [2] it was greater than 100 µM; in [3], greater than 100 µM; in [9] it was greater than 100 µM; in test [10], greater than 100 µM; in test [4], 34.6 µM. Besides, the TGI in [5] is 47.4 µM; in test [6] it was greater than 100 µM; in test [7], greater than 100 µM.
With `CC12CCC(O)CC1CCC1C2CCC2(C)C(C3=CC(=O)OC3)CCC12` (stereo unspecified), the GI50 in [1] was 1.5 µM; in test [2] it was greater than 100 µM; in test [3], 5.81 µM; in test [9] it was 27 µM; in test [10], 20.5 µM; in [4], greater than 100 µM. For the same compound, the values for the GI50 in test [5] and in [6] were 21.9 µM and 11.2 µM, respectively. Moreover, the TGI is 10.4 µM in test [1]; greater than 100 µM in test [2]; greater than 64.6 µM in [3]; greater than 100 µM in test [9]; greater than 71 µM in test [10]; greater than 100 µM in test [4]. The results for the TGI in [5] and in [6] were greater than 100 µM and greater than 95.3 µM, respectively.
For the compound `Cc1[nH]nc(C(=O)Nc2n[nH]c3ccccc23)c1[N+](=O)[O-]`, the GI50 in test [1] was greater than 76.6 µM; in test [2], greater than 100 µM; in test [3], greater than 66.9 µM; in [9], greater than 100 µM; in test [10] it was greater than 100 µM; in [4], greater than 60.1 µM. For the same compound, the GI50 in test [5] is greater than 100 µM; in [6], 26.5 µM; in test [7] it was greater than 100 µM. Besides, the TGI in test [1], in test [2], in [3], in [9], in [10] and in [4] was greater than 100 µM each time. Moreover, the TGI in test [5], in test [6] and in test [7] was greater than 100 µM in each case.
In the case of `COc1cc2c3c(n(CCCNCCN4CCOCC4)c(=O)c2cc1OC)-c1cc2c(cc1C3=O)OCO2`, the GI50 in test [1] is 4.1 µM and 16 µM; in test [2], 1.93 µM and 4.36 µM; in [9] it was 0.11 µM; in test [10], 6.92 µM and 2.12 µM; in test [5] it was 1.08 µM; in [6] it was 7.64 µM and 7.01 µM. The GI50 in test [7] is 8.93 µM and 7.24 µM. The TGI is 11.4 µM and 35.8 µM in test [1]; 10.3 µM and 19.2 µM in test [2]; 0.529 µM and 3.83 µM in [3]; 0.69 µM in test [9]; 23.5 µM and > 100 µM in test [10]; 7.74 µM and 20.2 µM in test [4]. Also, the TGI was 3.88 µM in test [5]; 16.6 µM and 29.5 µM in [6]; 18.2 µM and 18.6 µM in test [7].
For `CCC(C)CC(CC)NCCN1CCN(C(CC)CC(C)CC)C1=S` (stereo unspecified), the GI50 in test [2] is 1.77 µM; in test [3], 1.74 µM; in test [9], 1.66 µM; in [10], 2.23 µM; in test [4], 1.61 µM; in test [5] it was 1.97 µM. For the same compound, the GI50 in test [6] was 2.39 µM; in [7] it was 1.93 µM; in [8] it was 1860 nM. The TGI in test [2] was found to be 3.39 µM; in test [3] it was 3.5 µM; in test [9], 3.39 µM; in test [10], 4.53 µM; in test [4] it was 2.95 µM; in test [5], 3.43 µM. Besides, the results for the TGI in test [6], in test [7] and in test [8] were 4.52 µM, 5.13 µM and 4.98 µM, respectively.
Consider `COc1ccc(-c2nn(-c3cccc(NC(=O)Nc4cccc(C(F)(F)F)c4)c3)cc2-c2ccncc2)cc1Cl`, for which the GI50 in test [1] was 1.61 µM; in test [2], 1.45 µM; in [3] it was 3.02 µM; in test [9], 2.29 µM; in [10] it was 3.73 µM; in test [4] it was 1.57 µM. The figures for the GI50 in [5], in [6] and in [8] were 1.97 µM, 1.68 µM and 1540 nM, respectively. Further, the TGI is 5.81 µM in test [1]; 4.67 µM in [2]; greater than 100 µM in test [3]; greater than 100 µM in test [9]; greater than 100 µM in [10]; 3.22 µM in test [4]. Besides, the TGI is 6.45 µM in test [5], 4.55 µM in test [6] and 7.59 µM in [8].
Turning to `CN(C)CCCC(=O)Nc1ccc(Cn2nnc3c2C(=O)c2nnn(Cc4ccc(NC(=O)CCCN(C)C)cc4)c2C3=O)cc1`, the GI50 was 16 µM in test [1]; 1.82 µM in [2]; 2.13 µM in test [3]; greater than 100 µM in [9]; 2.32 µM in test [10]; 1.48 µM in test [4]. For the same compound, the values for the GI50 in test [5], in test [6] and in test [8] were 2.34 µM, 13.8 µM and 2040 nM, respectively. In addition, the TGI in test [1] was 45.3 µM; in test [2], 3.26 µM; in test [3], 5.01 µM; in test [9], greater than 100 µM; in [10], 5.74 µM; in [4] it was 2.84 µM. Also, the results for the TGI in test [5], in [6] and in test [8] were 5.6 µM, 29.8 µM and 6.35 µM, respectively.

Values taken from PubChem BioAssay (NCI).
